{"source": "patent US20250288576A1", "about": "“SPECIFIC TETRADENTATE COPPER CHELATORS AS ANTICANCER AGENTS” (Guangdong University of Technology, priority 2024, published 2025)", "key": {"HeLa cells [1]": {"tested_on": "HeLa cells", "test": "Colony-forming assay", "assay_type": "cell-based, human", "details": "14th day after treatment", "protocol": "(A) Representative images of colonies formed by HeLa cells at the 14th day after treatment with increasing concentrations of TDMQ20. (B) Quantitative analysis of this clonogenicity assay. **p<0.01, ****p<0.0001 vs. control. “Control” stands for untreated cells.\nColony-forming assay. The proliferation of HeLa cells exposed to various concentrations of TDMQ20 was evaluated at the 14th day after treatment."}, "cervical cancer HeLa": {"tested_on": "cervical cancer HeLa", "test": "MTT cell viability assay, HeLa", "assay_type": "cell-based, human", "details": "48 h incubation, mean ± SD of at least three experiments", "protocol": "(§1) The cytotoxicity of several compounds from the TDMQ series, especially TDMQ20, was evaluated on several human cancer cell lines. The clinically used anticancer drug 5-fluorouracil (5-FU) was used as comparator.\n(§2) The targeted human cancer lines were 1) the metastatic melanoma A375, 2) the non-small cell lung adenocarcinoma A549, 3) the melanoma COLO-829, 4) the cervical cancer HeLa, 5) the hepatocellular carcinoma HepG2. The human immortalized keratinocyte cell line HaCaT was used as non-cancer reference cell line.\n(§3) The MTT test was used to measure the cell viability. In this test, the applied colorless tetrazolium salt is reduced by mitochondrial succinate dehydrogenase, thus producing the violet formazan derivative that is quantified by UV-visible spectrometry at 570 nm."}, "[2]": {"tested_on": "non-small cell lung adenocarcinoma A549", "test": "MTT cell viability assay, A549", "assay_type": "cell-based, human", "details": "for IC50: MTT, 48 h incubation, mean ± SD of at least three experiments", "protocol": "as §1, §2, §3"}, "melanoma COLO-829": {"tested_on": "melanoma COLO-829", "test": "MTT cell viability assay, COLO-829", "assay_type": "cell-based", "details": "Homo sapiens, 48 h incubation, mean ± SD of at least three experiments", "protocol": "as §1, §2, §3"}, "[3]": {"tested_on": "immortalized keratinocyte cell line HaCaT", "test": "MTT cell viability assay, HaCaT (non-cancer reference)", "assay_type": "cell-based, human", "details": "48 h incubation, non-cancer cells, mean ± SD of at least three experiments", "protocol": "as §1, §2, §3"}, "metastatic melanoma A375": {"tested_on": "metastatic melanoma A375", "test": "MTT cell viability assay, A375", "assay_type": "cell-based", "details": "Homo sapiens, A-375, 48 h incubation, mean ± SD of at least three experiments", "protocol": "as §1, §2, §3"}, "HeLa cells [4]": {"tested_on": "HeLa cells", "test": "Apoptosis, annexin V-FITC/PI flow cytometry", "assay_type": "cell-based, human", "details": "48 h incubation", "protocol": "FIG. 3. Pro-apoptotic activity of TDMQ20 on HeLa cells after 48 h of incubation. (A) Quantitative analysis of necrotic cells (quadrant Q1), early apoptotic cells (quadrant Q2), advanced apoptotic cells (quadrant Q3) and non-apoptotic cells (quadrant Q4), using annexin V/propidium iodide (PI) staining and detection by flow cytometry. “Control” stands for untreated cells. (B) Histograms represent the proportion of apoptotic cells (Q2+Q3) within the flow cytometry charts; “ns” stands for p>0.05, ****p<0.0001 vs. control.\nThe pro-apoptotic activity of TDMQ20 in Hela cells was evaluated after 48 h of incubation with the drug, using the annexin V-FITC/PI method (FITC and PI stand for fluoresceine-5-isothiocyanate and propidium iodide, respectively). After staining, live cells show little or no fluorescence (annexin V−/PI−), early apoptosis cells show green fluorescence (annexin V+/PI−), late apoptosis cells and necrosis cells show red and green fluorescence (annexin V+/PI+). Cells were detected by flow cytometry. IDEAS software was used for acquisition of data and FlowJo v. X software was used for analysis of data. The total proportion of apoptotic cells, including early apoptosis (quadrants Q2) or late apoptosis (quadrants Q3) or necrosis (quadrants Q1), accounted for 51%, 15% and 9% when HeLa cells were treated with TDMQ20 at the concentration of […], 7.3 μM and 3.7 μM, respectively. So, TDMQ20 induced the apoptosis of HeLa cells in a dose-dependent manner."}, "[5]": {"tested_on": "hepatocellular carcinoma HepG2", "test": "MTT cell viability assay, HepG2", "assay_type": "cell-based, human", "details": "48 h incubation, mean ± SD of at least three experiments", "protocol": "as §1, §2, §3"}, "HeLa cells [6]": {"tested_on": "HeLa cells", "test": "ROS production, DCF fluorescence (H2DCF-DA) flow cytometry", "assay_type": "cell-based, human", "details": "48 h incubation", "protocol": "FIG. 4. ROS production induced by TDMQ20 in HeLa cells, detected by DCF fluorescence after 48 h of incubation. ***p<0.001, ****p<0.0001.\nThe most straightforward technique for measuring the production of […] in cells is the use of the cell permeable fluorescent probe 2′,7′-dichlorodihydrofluorescein diacetate (H2DCF-DA). In the presence of ROS, predominantly H2O2, H2DCF is rapidly oxidized to 2′,7′-dichlorofluorescein (DCF) which is highly fluorescent, with excitation and emission wavelengths of 498 and 522 nm, respectively. The stained cells were analyzed by flow cytometry and analyzed by the FlowJo v.Xsoftware."}, "HeLa cells [7]": {"tested_on": "HeLa cells", "test": "Mitochondrial membrane potential, JC-1 staining flow cytometry", "assay_type": "cell-based, human", "details": "increasing concentration of TDMQ20, 48 h", "excerpt": "FIG. 5. (A) Red/green fluorescence of HeLa cells treated with various concentrations of TDMQ20, and stained by JC-1, as an indirect measure of mitochondrial membrane potential (ΔΨm). Detection by flow cytometry. (B) Histograms presenting data of panel A as mean values of three independent experiments±SD; ****p<0.0001 vs. control.\nThe higher is the ΔΨm, the more elevated is the red shift of the dye (more aggregates formed); vice-versa, the lower is the ΔΨm of the mitochondria and the lower is the red to green ratio of the fluorescent marker (few aggregates formed). Therefore, the ratio of red/green fluorescence intensities is significant of mitochondrial integrity and function, and mitochondrial depolarization is indicated by a reduction in the red to green fluorescence intensity ratio.\nThis method was used to evaluate the mitochondrial membrane potential in HeLa cells incubated with various concentrations of TDMQ20 for 48 h, using staining with JC-1, and quantification by flow cytometry treated with the FlowJo v. X software."}, "HeLa cells [8]": {"tested_on": "HeLa cells", "test": "Wound healing assay (scratch assay)", "assay_type": "cell-based, human", "details": "14.5 μM, 24 h", "protocol": "(A) Representative images of wounds formed by HeLa cells after treatment with TDMQ20. (B) Quantitative analysis of the wound closure upon treatment by TDMQ20. ****p<0.0001 vs. control. “Control” stands for untreated cells. Scale bar: 250 μm.\nWound healing assay (or “scratch assay”). The migratory ability of Hela cells in the presence of TDMQ20 was evaluated using the wound healing assay monitored by optical microscopy. Measurement after 24 h of the width of the “wound” created in a cell monolayer quantify the migration rate of the cells to close the wound. This method mimics cell migration during wound healing in vivo. For cancer cells, cell migration is involved in several processes such as tumor invasion, neo-angiogenesis and metastasis (X. Wang et al., BMC Pharmacol. Toxicol. 2019, 20, 4)."}}}
{"smiles": "CN(C)CCNCCc1ccc2c(Cl)cc(Cl)c(N)c2n1", "note": "[TDMQ20]", "values": [{"measurement": "HeLa cells in colony-forming assay", "setting": "HeLa cells [1]; TDMQ20 = 12 μM", "result": "not detectable"}, {"measurement": "Number of HeLa cells in cultures (colony-forming ability)", "setting": "HeLa cells [1]; increasing drug concentration from 1.5 to 12 μM", "result": "drastically decreased"}, {"measurement": "IC50", "setting": "cervical cancer HeLa", "result": "14.5 ± 0.8", "unit": "µM"}, {"measurement": "IC50", "setting": "cervical cancer HeLa; Homo sapiens, HeLa, 48 h", "result": "14 to 16", "unit": "µM"}, {"measurement": "IC50", "setting": "[2]; Homo sapiens, A549, 48 h", "result": "14 to 16", "unit": "µM"}, {"measurement": "IC50", "setting": "[2]", "result": "16.2 ± 2.9", "unit": "µM"}, {"measurement": "Cytotoxic activity relative to the reference drug 5-FU", "setting": "[2]; lung adenocarcinoma A549 cells", "result": "four times higher"}, {"measurement": "IC50", "setting": "melanoma COLO-829", "result": "40.2 ± 4.9", "unit": "µM"}, {"measurement": "IC50", "setting": "[3]", "result": "41.1 ± 4.8", "unit": "µM"}, {"measurement": "IC50", "setting": "[3]; Homo sapiens, HaCaT, 48 h", "result": 41, "unit": "µM"}, {"measurement": "IC50", "setting": "metastatic melanoma A375", "result": "38.1 ± 7", "unit": "µM"}, {"measurement": "Total proportion of apoptotic cells (early, late apoptosis, necrosis)", "setting": "HeLa cells [4]; 3.7 μM", "result": 9, "unit": "%"}, {"measurement": "Total proportion of apoptotic cells (early, late apoptosis, necrosis)", "setting": "HeLa cells [4]; 7.3 μM", "result": 15, "unit": "%"}, {"measurement": "Total proportion of apoptotic cells (early, late apoptosis, necrosis)", "setting": "HeLa cells [4]; 14.5 μM", "result": 51, "unit": "%"}, {"measurement": "IC50", "setting": "[5]", "result": "16.6 ± 4.7", "unit": "µM"}, {"measurement": "IC50", "setting": "[5]; Homo sapiens, HepG2, 48 h", "result": "14 to 16", "unit": "µM"}, {"measurement": "Fluorescence of DCF, % of the control cells", "setting": "HeLa cells [6]; 3.7 μM", "result": 125, "unit": "%"}, {"measurement": "Fluorescence of DCF, % of the control cells", "setting": "HeLa cells [6]; 7.3 μM", "result": 138, "unit": "%"}, {"measurement": "Fluorescence of DCF, % of the control cells", "setting": "HeLa cells [6]; 14.5 μM", "result": 150, "unit": "%"}, {"measurement": "JC-1 red/green fluorescence ratio (mitochondrial transmembrane potential ΔΨm)", "setting": "HeLa cells [7]", "result": "drastic decrease"}, {"measurement": "HeLa cell migration to close a wound", "setting": "HeLa cells [8]", "result": "significantly inhibited"}]}
{"smiles": "O=c1[nH]cc(F)c(=O)[nH]1", "note": "[5-FU, 5-fluorouracil, reference compound]", "values": [{"measurement": "IC50", "setting": "cervical cancer HeLa; Homo sapiens, HeLa, 48 h", "result": "20.3 ± 4.6", "unit": "µM"}, {"measurement": "IC50", "setting": "[2]; Homo sapiens, A549, 48 h", "result": "72.6 ± 10", "unit": "µM"}, {"measurement": "IC50", "setting": "melanoma COLO-829", "result": "48.7 ± 0.7", "unit": "µM"}, {"measurement": "IC50", "setting": "[3]; Homo sapiens, HaCaT, 48 h", "result": 30, "unit": "µM"}, {"measurement": "IC50", "setting": "metastatic melanoma A375", "result": "68.5 ± 4", "unit": "µM"}, {"measurement": "IC50", "setting": "[5]; Homo sapiens, HepG2, 48 h", "result": "46.7 ± 4.7", "unit": "µM"}]}
